Test results taken from patent publication US20110105392A1 (ELI LILLY AND COMPANY, priority 2008, published 2011).

Experiments:
[1] = calculated from published PK profiles; cited from earlier work
healthy volunteers = experiment: Euglycaemic glucose clamp after single SC dose in healthy volunteers; type: in vivo, human
Procedure: In all treatment periods, subjects undergo a euglycaemic clamp procedure for up to 24/36 hours following each insulin compound injection. Glucose infusion rates (GIR) are adjusted to maintain euglycaemia, with the documented GIR over time providing the GD measure of insulin action. The aim of the euglycaemic glucose clamp is to maintain euglycaemia through glucose infusion after the administration of a dose of an insulin compound. It is assumed that endogenous insulin secretion and hepatic glucose output are minimal and that any glucose that is translocated out of the glucose space (i.e., glucose metabolised) is the direct consequence of the administered exogenous insulin. The GIR in this case will be the glucodynamic (GD) measure of the insulin action over time. All glucose clamp studies are performed after an overnight fast of approximately 8 hours. On the morning of the study, a small catheter is placed into a vein of one arm, ideally in the ante-cubital fossa, for administration of 20% dextrose solution (buffered to near neutral pH) under the control of a volumetric pump. Another catheter is placed, ideally in the wrist or hand for venous glucose sampling. This area is heated with a warming device to approximately 55-60° C. for sampling arterialized venous blood. Blood samples are obtained at the bedside for immediate determination of whole blood glucose concentrations using an automated glucose oxidase technique. After basal blood sampling and a stabilization period of approximately 30 minutes, each subject receives a dose of insulin compound administered subcutaneously. The start of the subcutaneous injection of an insulin compound is defined as time zero. Following completion of dosing, in conjunction with frequent blood sampling for measurement of blood glucose, glucose is infused intravenously at a variable rate in order to maintain euglycaemia for up to 24 or 36 hours after insulin administration.
Blood sampling occurs approximately every 10 minutes for approximately 30 minutes prior to dosing and continued every 5-10 minutes for the first 2 hours after dosing (with the option to sample as frequently as every 2.5 minutes), and then reduced to 10-30 minute intervals up to the end of clamp.
During the glucose clamp, the glucose infusion rate is adjusted to maintain a pre-determined target blood glucose concentration for the individual subject. Preferably, the target concentration is close to the fasting blood glucose. The aim of the glucose clamp procedure is to maintain the blood glucose concentrations within +5% of the pre-dose target value, which is defined as 5 mg/dL below the mean fasting blood glucose. Thus, blood glucose concentrations are kept constant while the GIR varied. […]

Row | Substance | peak-trough (PT) ratio [1] | time GD maintained (healthy volunteers; Part C, 0.5 mg/kg SC) | GIR profile versus peak GIR response for glargine (healthy volunteers; Part C, 0.5 mg/kg SC, glargine 0.5 U/kg) | within subject variability in the glucodynamics (healthy volunteers; humans) | duration of action (healthy volunteers; humans, versus insulin glargine (FIG. 2))
1 | insulin glargine | 1.2-2.6 | – | – | – | –
2 | LY: 20 kDa PEGylated insulin lispro, about 95% or more at B28, prepared essentially as in Example 9 | – | greater than 36 hours | exceeded the peak GIR response for glargine | less than 30% | longer than that of insulin glargine
